This is an account of results in US12414911B2, “Topical compositions and methods of use” (priority 2012, dated 2025).

One assay relates to C. Albicans. The experiment in a line: Agar-solid Diffusion Method, inhibition zone. It is filed as cell-based. Particulars: Candida albicans.
The subject of another assay is P. Acnes. Briefly: Agar-solid Diffusion Method, inhibition zone. It is filed as cell-based. Particulars: Cutibacterium acnes.
In the next assay the test system is Staph Aureus. Briefly: Agar-solid Diffusion Method, inhibition zone. It is filed as cell-based. Particulars: Staphylococcus aureus.
Another assay relates to T. Rubrum. Briefly: Agar-solid Diffusion Method, inhibition zone. It counts as cell-based. Particulars: Trichophyton rubrum.
The test system of another assay is E. Coli. Briefly: Agar-solid Diffusion Method, inhibition zone. It is filed as cell-based. Particulars: Escherichia coli.
For assay [1], the system named is LTB4 release from macrophages. Briefly: Inhibition of LTB4 release from stimulated macrophage cell line (radioimmunoassay). It is filed as cell-based. Particulars: NDGA 25 uM, positive control. The method, then: MFSO and the MFB skin extract have Anti-inflammatory Activity.
MFSO and the MFB skin extract were dissolved in DMSO and added to cell culture medium at a stock concentration for use in these in vitro experiments. The ability of MFSO to function as an inhibitor of LTB4 release was evaluated using a macrophage cell line followed by the addition of calcium iontophore for stimulation of LTB4 and the use of a radioimmunoassay (Amersham) for LTB4 detection as previously described (Garrido G, González D, Lemus Y, Garcia D, Lodeiro L, Quintero G, Delporte C, Núñez-Sellés A J, Delgado R. In vivo and in vitro anti-inflammatory activity of Mangifera indica L. extract (VIMANG). Pharmacol Res. 2004 August; 50 (2):143-9). NDGA (25 uM) is a known positive control that inhibits LTB4 release and the vehicle control consisted of DMSO in culture medium with no MFSO.

The nature of assay [2]: UVB SPF activity of formulations. It is filed as in vivo, human. Particulars: Octinoxate 3% alone. As to the method:
Formulations containing MFSO and octyl methoxycinnamate (Octinoxate), alone and in combination, were prepared without changing the vehicle base and tested for UVB SPF activity (2 subjects).
To evaluate for SPF boosting effects of MFSO, a concentration of Octinoxate was selected that gave SPF values that would allow for its efficient absorption and avoid the saturation effect that occurs when higher concentrations of sunscreens are used.

The next assay has as its system Normal human spermatozoa. The experiment in a line: Spermicidal activity (Sander-Cramer assay). It counts as cell-based. On the set-up: key: +: Mobile; −: Immobile; ±: 90% lost mobility. Particulars: 1% concentration. From the text: Normal human spermatozoa were used to assess the spermicidal activity (Sander-Cramer assay) of MFSO as described (Benhong Z., Zhenpeng Q, Gang L, Chun L, Zhang J. Spermicidal and antigonococcal effects of tannins from pomegranate rind. Journal of Medicinal Plants Research 2012 February; 6 (7); 1334-1339). Nonoxynol-9 was used as a positive reference standard and semen added to physiological saline was used as the negative control. Semen samples were donated by 3 healthy fertile men. The minimum MFSO concentration that caused 100% immobilization of sperm within 20 seconds was considered to be the minimal effective concentration (MEC).

With `CC(=O)N1CCN(c2ccc(OCC3COC(Cn4ccnc4)(c4ccc(Cl)cc4Cl)O3)cc2)CC1` (stereo not shown) [Ketoconazole], the zone of inhibition at 1000 µM was determined as 25 mm in the assay on C. Albicans (1 mM); 0 mm with P. Acnes (1 mM); 0 mm in the assay on Staph Aureus (1 mM); 25 mm in the assay with T. Rubrum (1 mM); 0 mm in the assay with E. Coli (read-out: Inhibition Zone).

For `CC(Cc1ccc(O)c(O)c1)C(C)Cc1ccc(O)c(O)c1` (stereo not shown) [NDGA], the “inhibition of LTB4 release” value in assay [1] stood at 98%.

Consider `O=C(N[C@H](CO)[C@H](O)c1ccc([N+](=O)[O-])cc1)C(Cl)Cl` [Chloramphenicol], for which the zone of inhibition at 30 µM with C. Albicans (30 uM) was 0 mm; with P. Acnes (30 uM), 25 mm; in the assay on Staph Aureus (30 uM), 25 mm; with T. Rubrum (30 uM), 0 mm; with E. Coli (30 uM), 0 mm.

`O=C(O)c1cn(C2CC2)c2cc(N3CCNCC3)c(F)cc2c1=O` [Ciprofloxacin]: the zone of inhibition at 10 µM was 0 mm in the assay with C. Albicans (10 uM); 22 mm in the assay on P. Acnes (10 uM); 25 mm with Staph Aureus (10 uM); 0 mm in the assay on T. Rubrum (10 uM); 25 mm with E. Coli (10 uM).

Turning to `CCCCC(CC)COC(=O)C=Cc1ccc(OC)cc1` (stereo not shown) [Octinoxate, octyl methoxycinnamate], in assay [2], the SPF stood at 3.

Take Nonoxynol-9: the “Sperm Motility” value with Normal human spermatozoa (action time 20 seconds) and with Normal human spermatozoa (action time 60 seconds) was “−” throughout.
